Values quoted from earlier work in patent US20030077758A1, “Myc repressor modulation to treat aging-related disorders” (priority 2000, published 2003).

Biological target: AP-2 (Homo sapiens, UniProt P05549)
Details: in vitro; apparently by oxidizing cysteine residues in the AP-2 DNA binding domain

Sequence of AP-2 (P05549 whole entry, species assumed, the tested form may be a part): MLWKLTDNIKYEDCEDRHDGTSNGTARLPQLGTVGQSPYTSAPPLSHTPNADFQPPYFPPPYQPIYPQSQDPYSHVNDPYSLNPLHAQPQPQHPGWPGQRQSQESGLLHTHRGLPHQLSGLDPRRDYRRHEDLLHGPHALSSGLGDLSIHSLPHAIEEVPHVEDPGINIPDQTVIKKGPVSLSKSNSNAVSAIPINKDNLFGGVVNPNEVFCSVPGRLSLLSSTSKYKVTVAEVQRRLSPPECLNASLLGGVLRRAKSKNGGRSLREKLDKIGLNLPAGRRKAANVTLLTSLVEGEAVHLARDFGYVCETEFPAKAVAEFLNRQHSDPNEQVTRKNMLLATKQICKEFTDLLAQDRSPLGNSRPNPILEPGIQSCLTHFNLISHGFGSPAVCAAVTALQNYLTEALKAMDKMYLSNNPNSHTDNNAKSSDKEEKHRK

SMILES | AP-2 DNA binding activity
CN(C)C(=O)/N=N/C(=O)N(C)C [diamide] | inhibited
OO [hydrogen peroxide] | inhibited
